Measurements from PMC6225228, “Design, Synthesis and Evaluation of N-pyrazinylbenzamides as Potential Antimycobacterial Agents” (Molecules : A Journal of Synthetic Chemistry and Natural …, 2018).
In brackets after ≈: the same amount, converted by molar mass. Read-outs that look alike come from different tables or passages of the source.

How the values were obtained:
[1] = test system: Pseudomonas aeruginosa CCM 1961; assay: Antibacterial microdilution broth, PA; type: cell-based; settings: Pseudomonas aeruginosa, read-out: MIC PA
[2] = test system: M. avium ssp. avium CNCTC My 80/72 (ATCC 15769); assay: Antimycobacterial microdilution MABA, M. avium; type: cell-based, Mycobacterium avium; settings: for M. avium ATCC 15769 MIC: Middlebrook 7H9 with OADC, pH 6.6, MABA; for MIC: Mycobacterium avium, ATCC15769, pH 6.6, read-out: M. avium ATCC 15769 MIC
[3] = test system: Mycobacterium tuberculosis H37Rv CNCTC My 331/88 (ATCC 27294); assay: Antimycobacterial microdilution MABA, M. tuberculosis; type: cell-based; settings: Mycobacterium tuberculosis, read-out: Mtb H37Rv ATCC 27294 MIC, Middlebrook 7H9 with OADC growth supplement, pH = 6.6, MABA
[4] = test system: Lichtheimia corymbifera 272; assay: Antifungal microdilution broth, LC; type: cell-based; settings: read-out: MIC LC
[5] = test system: Staphylococcus aureus CCM 4516/08; assay: Antibacterial microdilution broth, SA; type: cell-based; settings: Staphylococcus aureus
[6] = test system: Candida albicans ATCC 44859; assay: Antifungal microdilution broth, CA; type: cell-based; settings: Candida albicans, read-out: MIC CA
[7] = test system: Aspergillus fumigatus 231; assay: Antifungal microdilution broth, AF; type: cell-based; settings: read-out: MIC AF
[8] = test system: Trichophyton interdigitale 445; assay: Antifungal microdilution broth, TI; type: cell-based; settings: read-out: MIC TI
[9] = test system: Escherichia coli CCM 4517; assay: Antibacterial microdilution broth, EC; type: cell-based; settings: Escherichia coli, read-out: MIC EC
Candida tropicalis 156 = assay: Antifungal microdilution broth, CT; type: cell-based; settings: read-out: MIC CT
Candida glabrata 20/I = assay: Antifungal microdilution broth, CG; type: cell-based; settings: Nakaseomyces glabratus, 20/I, read-out: MIC CG
[10] = test system: Mycobacterium smegmatis CCM 4622 (ATCC 607); assay: Antimycobacterial microdilution, M. smegmatis; type: cell-based; settings: Mycolicibacterium smegmatis, read-out: M. smeg. ATCC 607 MIC
[11] = test system: Staphylococcus epidermidis H 6966/08; assay: Antibacterial microdilution broth, SE; type: cell-based; settings: Staphylococcus epidermidis, read-out: MIC SE
Trichosporon asahii 1188 = assay: Antifungal microdilution broth, TA; type: cell-based; settings: read-out: MIC TA
Candida krusei E28 = assay: Antifungal microdilution broth, CK; type: cell-based; settings: Pichia kudriavzevii, read-out: MIC CK
[12] = test system: Staphylococcus aureus H 5996/08 methicillin resistant; assay: microbe, parasite or virus in culture; type: cell-based; settings: Staphylococcus aureus, MRSA, read-out: MIC MRSA
[13] = test system: M. kansasii CNCTC My 235/80 (ATCC 12478); assay: Antimycobacterial microdilution MABA, M. kansasii; type: cell-based, Mycobacterium kansasii; settings: Mycobacterium kansasii, ATCC12478, pH 6.6, read-out: M. kans. ATCC 12478 MIC, Middlebrook 7H9 with OADC, pH 6.6, MABA
[14] = test system: Enterococcus sp. J 14365/08; assay: Antibacterial microdilution broth, EF; type: cell-based; settings: Enterococcus, read-out: MIC EF
[15] = Lichtheimia corymbifera, 272, 24 h
[16] = Lichtheimia corymbifera, 272, 48 h
[17] = CCM4516, 24 h, read-out: MIC SA, 24 h
[18] = CCM4516, 48 h, read-out: MIC SA, 48 h
[19] = Aspergillus fumigatus, 231, 24 h
[20] = Aspergillus fumigatus, 231, 48 h
[21] = Trichophyton interdigitale, 445, 72 h
[22] = Trichophyton interdigitale, 445, 120 h
[23] = Trichosporon asahii, 1188, 24 h
[24] = Trichosporon asahii, 1188, 48 h

Row | SMILES | MIC ([1]; CCM1961, 72 h) | MIC ([1]; CCM1961, 120 h) | M. avium ATCC 15769 MIC [2] | MIC [2] | MIC [3] | melting point | MIC [4, 15] | MIC [4, 16] | MIC [5, 17] | MIC [5, 18] | MIC ([6]; ATCC44859, 24 h) | MIC ([6]; ATCC44859, 48 h) | MIC [7, 19] | MIC [7, 20] | MIC [8, 21] | MIC [8, 22] | MIC ([9]; CCM4517, 24 h) | MIC ([9]; CCM4517, 48 h) | MIC (Candida tropicalis 156; Candida tropicalis, 156, 24 h) | MIC (Candida tropicalis 156; Candida tropicalis, 156, 48 h) | further results
1 | O=C(Nc1cnccn1)c1cccc(Cl)c1 [Compound 1k] | > 125 µM | > 125 µM | >100 µg/mL | > 100 µg/mL | 50 µg/mL (≈ 214 µM) | 147.2 to 149.4 °C | > 125 µM | > 125 µM | > 125 µM | > 125 µM | > 125 µM | > 125 µM | > 125 µM | > 125 µM | > 125 µM | > 125 µM | > 125 µM | > 125 µM | > 125 µM | > 125 µM | MIC (Candida glabrata 20/I; 24 h): > 125 µM; MIC (Candida glabrata 20/I; 48 h): > 125 µM; MIC [10]: ≥ 500 µg/mL; MIC ([11]; H6966/08, 24 h): > 125 µM; MIC ([11]; H6966/08, 48 h): > 125 µM; MIC (Trichosporon asahii 1188; [23]): > 125 µM; MIC (Trichosporon asahii 1188; [24]): > 125 µM; MIC (Candida krusei E28; E28, 24 h): > 125 µM; MIC (Candida krusei E28; E28, 48 h): > 125 µM; MIC ([12]; 24 h): > 125 µM; MIC ([12]; 48 h): > 125 µM; MIC [13]: 50 µg/mL (≈ 214 µM); MIC ([14]; SP.J14365/08, 24 h): > 125 µM; MIC ([14]; SP.J14365/08, 48 h): > 125 µM
2 | O=C(Nc1cnccn1)c1ccc(Cl)cc1 [Compound 1l] | > 125 µM | > 125 µM | >100 µg/mL | > 100 µg/mL | 50 µg/mL (≈ 214 µM) | 182.6 to 184.3 °C | > 125 µM | > 125 µM | > 125 µM | > 125 µM | > 125 µM | > 125 µM | > 125 µM | > 125 µM | > 125 µM | > 125 µM | > 125 µM | > 125 µM | > 125 µM | > 125 µM | MIC (Candida glabrata 20/I; 24 h): > 125 µM; MIC (Candida glabrata 20/I; 48 h): > 125 µM; MIC [10]: ≥ 500 µg/mL; MIC ([11]; H6966/08, 24 h): > 125 µM; MIC ([11]; H6966/08, 48 h): > 125 µM; MIC (Trichosporon asahii 1188; [23]): > 125 µM; MIC (Trichosporon asahii 1188; [24]): > 125 µM; MIC (Candida krusei E28; E28, 24 h): > 125 µM; MIC (Candida krusei E28; E28, 48 h): > 125 µM; MIC ([12]; 24 h): > 125 µM; MIC ([12]; 48 h): > 125 µM; MIC [13]: 50 µg/mL (≈ 214 µM); MIC ([14]; SP.J14365/08, 24 h): > 125 µM; MIC ([14]; SP.J14365/08, 48 h): > 125 µM
